Values quoted from earlier work in US20130280348A1, “Carbon dioxide and saline nasal delivery methods and treatments” (Glynn Tech, Inc., priority 2012, published 2013).

Columns and labels:
[1] = tested on: seasonal allergic rhinitis (SAR); settings: intranasal
[2] = tested on: nasal allergen challenge (grass or ragweed allergen) in subjects with SAR

For O=C=O [CO(2), carbon dioxide], the “symptoms of seasonal allergic rhinitis (SAR)” value [1] is listed as “reduce symptoms”, the “histamine levels in ipsilateral nasal secretions” value ([2]; after pretreatment with CO(2), increased significantly with sham treatment) is listed as “did not increase” and the ipsilateral secretion weights ([2]; compared with no treatment) is listed as “numerically reduced”. The sneezes ([2]; compared with no treatment, 12 subjects with SAR, 20-second CO(2) exposure 30 minutes before challenge, p=0.05) was “significant reduction”, the “bilateral runny nose symptoms” value ([2]; compared with no treatment, p=0.01) was “significant reduction” and the “contralateral secretion weights (reflex secretory response to allergen, primary outcome)” value ([2]; compared with no treatment, p=0.04) was “significant reduction”. The “sensation reported by subjects during exposure” value ([2]; during 20-second exposure to CO(2)) was “transient burning sensation”, the “acute response to allergen challenge” value ([2]; treatment with nasal CO(2)) was “partial reduction” and the reflex responses ([2]; treatment with nasal CO(2)) was “reduced”.
